The values below come from US20230126391A1, “ALPHA-METHYL-SUBSTITUTED DIAZABICYCLO[4.3.1] DECANE DERIVATIVES FOR TREATMENT OF PSYCHIATRIC DISORDERS” (priority 2020, published 2023).

Structures are written as SMILES. Read-outs that look alike come from different tables or passages of the source.

Assay [1] deals with T1, FKBP12 (Homo sapiens, UniProt P62942). In words: FP assay, binding to human FKBPs (Table 1). Particulars: fluorescence polarization assay.
The target of assay [2] is T2, FKBP12.6 (Homo sapiens, UniProt P68106). Kind of assay: FP assay, binding to human FKBPs (Table 1). The following applies: fluorescence polarization assay.
Another assay has as its target T3, FKBP51 (Homo sapiens, UniProt Q13451).
T3 sequence (Q13451 1-457): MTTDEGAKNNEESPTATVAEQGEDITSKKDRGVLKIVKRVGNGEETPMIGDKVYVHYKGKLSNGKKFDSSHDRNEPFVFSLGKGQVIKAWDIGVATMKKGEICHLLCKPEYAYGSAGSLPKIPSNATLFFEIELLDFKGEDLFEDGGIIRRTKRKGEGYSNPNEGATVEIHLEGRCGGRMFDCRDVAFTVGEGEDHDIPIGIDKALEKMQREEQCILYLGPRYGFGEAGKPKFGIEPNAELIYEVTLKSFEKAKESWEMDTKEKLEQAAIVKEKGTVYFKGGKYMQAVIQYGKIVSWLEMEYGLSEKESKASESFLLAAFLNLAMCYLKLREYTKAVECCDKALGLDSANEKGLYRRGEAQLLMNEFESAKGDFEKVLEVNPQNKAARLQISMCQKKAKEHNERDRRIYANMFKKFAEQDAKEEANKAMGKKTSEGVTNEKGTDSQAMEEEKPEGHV
In words: FP assay, binding to human FKBPs (Table 1). Particulars: fluorescence polarization assay.

The target in another assay is T4, FKBP52 (Homo sapiens, UniProt Q02790).
T4 sequence (Q02790 1-459): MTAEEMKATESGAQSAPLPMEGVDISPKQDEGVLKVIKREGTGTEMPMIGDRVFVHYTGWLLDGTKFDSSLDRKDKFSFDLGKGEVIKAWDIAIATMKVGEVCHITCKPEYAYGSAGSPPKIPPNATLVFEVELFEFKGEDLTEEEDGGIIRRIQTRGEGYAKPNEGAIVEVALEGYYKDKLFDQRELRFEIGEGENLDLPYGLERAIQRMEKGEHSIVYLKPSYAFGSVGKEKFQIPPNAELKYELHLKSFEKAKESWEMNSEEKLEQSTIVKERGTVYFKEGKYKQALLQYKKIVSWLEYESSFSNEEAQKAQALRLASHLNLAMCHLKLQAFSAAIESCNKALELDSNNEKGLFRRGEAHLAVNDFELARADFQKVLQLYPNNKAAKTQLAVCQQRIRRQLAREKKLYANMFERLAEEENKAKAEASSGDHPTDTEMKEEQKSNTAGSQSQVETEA
In words: FP assay, binding to human FKBPs (Table 1). The following applies: fluorescence polarization assay.

The next assay has as its target LpMip (Legionella pneumophila subsp. pneumophila, UniProt Q5ZXE0). Kind of assay: biochemical. Type of assay: binding.
In assay [3] the target is T1, FKBP12. In words: Binding affinity of ligands with large RA (E3-ligase CRBN, PEG linker). Particulars: * = detection limit. An excerpt: (§1) Further example of a diazabicyclo[4.3.1]decane with a large, bulky substituent in RA. The n corresponds to a varying PEG-linker length of 1-5. All tested ligands with a S-methyl group display increased binding affinity to the tested FKBPs while all R-isomers display decreased binding affinity as shown in the table below. In all cases, the addition of the methyl group in S-configuration increases the affinity to all measured FKBPs substantially.

Assay [4] deals with T2, FKBP12.6. The description is as above. The following applies: * = detection limit.
Description: as §1

Another assay addresses T5, FKBP51FK1 (Homo sapiens, UniProt Q13451).
T5 construct: FKBP51FK1
T5 sequence (Q13451 42-130 limits assumed): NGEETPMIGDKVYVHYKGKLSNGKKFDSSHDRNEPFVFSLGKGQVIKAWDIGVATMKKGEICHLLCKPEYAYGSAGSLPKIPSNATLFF
The assay is described as above.
Description: as §1

The target of a further assay is T6, FKBP52FK1 (Homo sapiens, UniProt Q02790).
T6 construct: FKBP52FK1
T6 sequence (Q02790 50-138 limits assumed): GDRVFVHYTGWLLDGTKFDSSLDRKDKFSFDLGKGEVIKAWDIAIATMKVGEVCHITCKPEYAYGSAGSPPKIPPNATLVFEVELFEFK
The description is as above.
Description: as §1

T1 sequence (P62942 whole entry): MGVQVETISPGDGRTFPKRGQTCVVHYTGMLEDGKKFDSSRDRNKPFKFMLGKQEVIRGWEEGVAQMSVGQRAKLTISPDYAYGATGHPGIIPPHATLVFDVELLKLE
Chain of LpMip (Q5ZXE0 21-233 limits assumed): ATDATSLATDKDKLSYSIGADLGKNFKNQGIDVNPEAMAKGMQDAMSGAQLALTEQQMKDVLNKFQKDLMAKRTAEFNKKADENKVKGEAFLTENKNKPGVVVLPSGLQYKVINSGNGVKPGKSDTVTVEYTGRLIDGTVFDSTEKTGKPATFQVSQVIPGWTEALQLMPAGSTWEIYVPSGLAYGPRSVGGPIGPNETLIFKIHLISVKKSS
T2 sequence (P68106 whole entry): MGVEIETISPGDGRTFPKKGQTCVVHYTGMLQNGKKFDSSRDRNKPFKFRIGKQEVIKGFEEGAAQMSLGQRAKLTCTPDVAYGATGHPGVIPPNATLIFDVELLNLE

Consider `C[C@@H](c1ccccn1)N1C[C@H](CO)[C@H]2CCC[C@@H](C1=O)N2S(=O)(=O)c1cc(Cl)cc(Cl)c1` [23b, (1S,5S,6R)-10-((3,5-dichlorophenyl)sulfonyl)-5-(hydroxymethyl)-3-((S)-1-(pyridin-2-yl)ethyl)-3,10-diazabicyclo[4.3.1]decan-2-one], for which the Ki on FKBP12 [1] worked out at 0.06 nM; at FKBP12.6 [2], 0.31 nM; at FKBP51, 1.9 nM; on FKBP52, 1.2 nM; on LpMip, 36 nM.

`COC[C@H]1CN(Cc2ccccn2)C(=O)[C@@H]2CCC[C@H]1N2S(=O)(=O)c1cc(Cl)cc(Cl)c1` [24a]: the inhibition constant (Ki) amounted to 0.65 nM on FKBP12 [1]; 3.4 nM at FKBP12.6 [2]; 12 nM at FKBP51; 11 nM at FKBP52; 497 nM on LpMip (read-out: Ki LpMip).

Consider `COC[C@H]1CN([C@@H](C)c2ccccn2)C(=O)[C@@H]2CCC[C@H]1N2S(=O)(=O)c1cc(Cl)cc(Cl)c1` [24b, (1S,5S,6R)-10-((3,5-dichlorophenyl)sulfonyl)-5-(methoxymethyl)-3-((S)-1-(pyridin-2-yl)ethyl)-3,10-diazabicyclo[4.3.1]decan-2-one], for which the Ki at FKBP12 [1] was 0.04 nM; on FKBP12.6 [2], 0.41 nM; at FKBP51 it was 0.83 nM; at FKBP52 it was 0.35 nM; on LpMip, 36 nM.

Regarding `O=C1[C@@H]2CCC[C@H]([C@@H](CO)CN1Cc1ccccn1)N2S(=O)(=O)c1ccc2ncsc2c1` [25a], the inhibition constant Ki at FKBP12 [1] came out at 5.5 nM; at FKBP12.6 [2] it was 3.8 nM; on FKBP51 it was 283 nM; on FKBP52, 190 nM; on LpMip (read-out: Ki LpMip), 3980 nM.

Turning to `CC[C@H]1CN(Cc2ccccn2)C(=O)[C@@H]2CCC[C@H]1N2S(=O)(=O)c1ccc2ncsc2c1` [26a], the Ki is 6.5 nM at FKBP12 [1]; 5.2 nM at FKBP12.6 [2]; 410 nM on FKBP51; 285 nM on FKBP52; 5150 nM at LpMip (read-out: Ki LpMip).

With `CC[C@H]1CN([C@@H](C)c2ccccn2)C(=O)[C@@H]2CCC[C@H]1N2S(=O)(=O)c1ccc2ncsc2c1` [26b, (1S,5S,6R)-10-(benzo[d]thiazol-6-ylsulfonyl)-5-ethyl-3-((S)-1-(pyridin-2-yl)ethyl)-3,10-diazabicyclo[4.3.1]decan-2-one], the Ki at FKBP12 [1] is 1.9 nM; at FKBP12.6 [2] it was 0.6 nM; at FKBP51, 27 nM; at FKBP52 it was 22 nM; at LpMip, 284 nM.

Take `C=C[C@H]1CN(Cc2cn(CCOCC(=O)Nc3cccc4c3C(=O)N(C3CCC(=O)NC3=O)C4=O)nn2)C(=O)[C@@H]2CCC[C@H]1N2S(=O)(=O)c1cc(Cl)cc(Cl)c1` (stereo partly shown) [MTQ503]: the inhibition constant (Ki) at FKBP12 [3] turned out to be 0.2 ± 0.03 nM; at FKBP12.6 [4] it was 0.46 ± 0.1 nM; at FKBP51FK1 it was 8 ± 1 nM; at FKBP52FK1, 1.9 ± 0.5 nM.

Turning to `C=C[C@H]1CN(Cc2cn(CCOCCOCC(=O)Nc3cccc4c3C(=O)N(C3CCC(=O)NC3=O)C4=O)nn2)C(=O)[C@@H]2CCC[C@H]1N2S(=O)(=O)c1cc(Cl)cc(Cl)c1` (stereo partly shown) [MTQ504], the inhibition constant Ki is 2.1 ± 0.2 nM at FKBP12 [3], 17 ± 1.3 nM on FKBP12.6 [4], 25 ± 6 nM at FKBP51FK1 and 43 ± 11 nM on FKBP52FK1.

With `C=C[C@H]1CN(Cc2cn(CCOCCOCCOCC(=O)Nc3cccc4c3C(=O)N(C3CCC(=O)NC3=O)C4=O)nn2)C(=O)[C@@H]2CCC[C@H]1N2S(=O)(=O)c1cc(Cl)cc(Cl)c1` (stereo partly shown) [MTQ505], the Ki at FKBP12 [3] turned out to be 2.4 ± 0.2 nM; on FKBP12.6 [4], 21 ± 2 nM; on FKBP51FK1, 17 ± 4 nM; on FKBP52FK1, 16 ± 5 nM.

Take `C=C[C@H]1CN(Cc2cn(CCOCCOCCOCCOCC(=O)Nc3cccc4c3C(=O)N(C3CCC(=O)NC3=O)C4=O)nn2)C(=O)[C@@H]2CCC[C@H]1N2S(=O)(=O)c1cc(Cl)cc(Cl)c1` (stereo partly shown) [MTQ506]: the inhibition constant (Ki) on FKBP12 [3] is 1.5 ± 0.2 nM; on FKBP12.6 [4], 19 ± 2 nM; on FKBP51FK1, 28 ± 5 nM; at FKBP52FK1, 30 ± 8 nM.

With `C=C[C@H]1CN(Cc2cn(CCOCCOCCOCCOCCOCC(=O)Nc3cccc4c3C(=O)N(C3CCC(=O)NC3=O)C4=O)nn2)C(=O)[C@@H]2CCC[C@H]1N2S(=O)(=O)c1cc(Cl)cc(Cl)c1` (stereo partly shown) [MTQ507], the Ki on FKBP12 [3] was found to be 0.7 ± 0.1 nM; on FKBP12.6 [4], 10 ± 1.2 nM; at FKBP51FK1 it was 12 ± 2 nM; at FKBP52FK1, 60 ± 12 nM.

For `C=C[C@H]1CN([C@@H](C)c2cn(CCOCC(=O)Nc3cccc4c3C(=O)N(C3CCC(=O)NC3=O)C4=O)nn2)C(=O)[C@@H]2CCC[C@H]1N2S(=O)(=O)c1cc(Cl)cc(Cl)c1` (stereo partly shown) [MTQ513], the Ki came out at 0.2 ± 0.02 nM at FKBP12 [3], 0.41 ± 0.2 nM on FKBP12.6 [4], 2.3 ± 0.4 nM at FKBP51FK1 and 0.7 ± 0.3 nM at FKBP52FK1.

Turning to `C=C[C@H]1CN([C@@H](C)c2cn(CCOCCOCC(=O)Nc3cccc4c3C(=O)N(C3CCC(=O)NC3=O)C4=O)nn2)C(=O)[C@@H]2CCC[C@H]1N2S(=O)(=O)c1cc(Cl)cc(Cl)c1` (stereo partly shown) [MTQ514], the inhibition constant Ki at FKBP12 [3] was 0.4 ± 0.1 nM; on FKBP12.6 [4], 2.4 ± 0.4 nM; on FKBP51FK1, 4.4 ± 1.2 nM; on FKBP52FK1, 5.7 ± 1.7 nM.

Consider `C=C[C@H]1CN([C@@H](C)c2cn(CCOCCOCCOCC(=O)Nc3cccc4c3C(=O)N(C3CCC(=O)NC3=O)C4=O)nn2)C(=O)[C@@H]2CCC[C@H]1N2S(=O)(=O)c1cc(Cl)cc(Cl)c1` (stereo partly shown) [MTQ515], for which the inhibition constant (Ki) on FKBP12 [3] is 0.5 ± 0.1 nM; at FKBP12.6 [4] it was 4.8 ± 0.5 nM; at FKBP51FK1, 3.2 ± 0.9 nM; at FKBP52FK1 it was 5 ± 1.2 nM.

`C=C[C@H]1CN([C@@H](C)c2cn(CCOCCOCCOCCOCC(=O)Nc3cccc4c3C(=O)N(C3CCC(=O)NC3=O)C4=O)nn2)C(=O)[C@@H]2CCC[C@H]1N2S(=O)(=O)c1cc(Cl)cc(Cl)c1` (stereo partly shown) [MTQ516]: the Ki on FKBP12 [3] was found to be 0.5 ± 0.1 nM; at FKBP12.6 [4], 3.7 ± 0.5 nM; at FKBP51FK1, 4.2 ± 0.8 nM; at FKBP52FK1 it was 8.4 ± 2.3 nM.

In the case of `C=C[C@H]1CN([C@@H](C)c2cn(CCOCCOCCOCCOCCOCC(=O)Nc3cccc4c3C(=O)N(C3CCC(=O)NC3=O)C4=O)nn2)C(=O)[C@@H]2CCC[C@H]1N2S(=O)(=O)c1cc(Cl)cc(Cl)c1` (stereo partly shown) [MTQ517], the Ki on FKBP12 [3] is 0.4 ± 0.05 nM; at FKBP12.6 [4], 1.5 ± 0.3 nM; on FKBP51FK1, 2.1 ± 0.4 nM; on FKBP52FK1, 4.9 ± 1.1 nM.
